Among the data in PubChem BioAssay AID330 (DTP/NCI, 2004) are T/C values, retold here.

Structures are written as SMILES. Where “and” joins values, the source holds several entries; their conditions need not be identical. Equal values may be shown once. Toxic doses and inconclusive results are not listed.

In this experiment the test system is P388 leukemia ip, CD2F1 mice, survival T/C. Description: NCI In Vivo Anticancer Drug Screen. Data for tumor model P388 Leukemia (intraperitoneal) in CD2F1 (CDF1) mice. Conditions: endpoint: median survival time, higher = longer survival. The gist of the method: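 Mice carrying the transplanted tumor received test compound or vehicle. Survival was recorded in each group, and the value is the treated-group measurement divided by that of the vehicle-treated control group.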

Setting [1] is: dose: 60.0 mg/kg/injection, schedule: Q01DX005 (ip), vehicle: Klucel (hydroxypropylcellulose) (HPC).
Setting [2] is: dose: 120.0 mg/kg/injection, schedule: Q01DX005 (ip), vehicle: Klucel (hydroxypropylcellulose) (HPC).
Setting [3] is: dose: 240.0 mg/kg/injection, schedule: Q01DX005 (ip), vehicle: Klucel (hydroxypropylcellulose) (HPC).
Setting [4] is: dose: 50.0 mg/kg/injection, schedule: Q01DX005 (ip), vehicle: Klucel (hydroxypropylcellulose) (HPC).
Where [5] appears, read: dose: 100.0 mg/kg/injection, schedule: Q01DX005 (ip), vehicle: Klucel (hydroxypropylcellulose) (HPC).
Where [6] appears, read: dose: 200.0 mg/kg/injection, schedule: Q01DX005 (ip), vehicle: Klucel (hydroxypropylcellulose) (HPC).
Where [7] appears, read: dose: 3.12 mg/kg/injection, schedule: Q01DX005 (ip), vehicle: Klucel (hydroxypropylcellulose) (HPC).
The mark [8] stands for this setting: dose: 6.25 mg/kg/injection, schedule: Q01DX005 (ip), vehicle: Klucel (hydroxypropylcellulose) (HPC).
Setting [9] is: dose: 12.5 mg/kg/injection, schedule: Q01DX005 (ip), vehicle: Klucel (hydroxypropylcellulose) (HPC).
The mark [10] stands for this setting: dose: 60.0 mg/kg/injection, schedule: Q01DX005 (ip), vehicle: saline with Tween-80.
Where [11] appears, read: dose: 120.0 mg/kg/injection, schedule: Q01DX005 (ip), vehicle: saline with Tween-80.
[12] abbreviates: dose: 240.0 mg/kg/injection, schedule: Q01DX005 (ip), vehicle: saline with Tween-80.
Where [13] appears, read: dose: 50.0 mg/kg/injection, schedule: Q01DX005 (ip), vehicle: saline.
Where [14] appears, read: dose: 100.0 mg/kg/injection, schedule: Q01DX005 (ip), vehicle: saline.
Setting [15] is: dose: 200.0 mg/kg/injection, schedule: Q01DX005 (ip), vehicle: saline.
Where [16] appears, read: dose: 25.0 mg/kg/injection, schedule: Q01DX009 (ip), vehicle: saline with Tween-80.
[17] abbreviates: dose: 100.0 mg/kg/injection, schedule: Q01DX009 (ip), vehicle: saline with Tween-80.
The mark [18] stands for this setting: dose: 50.0 mg/kg/injection, schedule: Q01DX009 (ip), vehicle: Klucel (hydroxypropylcellulose) (HPC).
Where [19] appears, read: dose: 100.0 mg/kg/injection, schedule: Q01DX009 (ip), vehicle: Klucel (hydroxypropylcellulose) (HPC).
Setting [20] is: dose: 200.0 mg/kg/injection, schedule: Q01DX009 (ip), vehicle: Klucel (hydroxypropylcellulose) (HPC).
Where [21] appears, read: dose: 6.25 mg/kg/injection, schedule: Q04DX003 (ip), vehicle: saline.
Where [22] appears, read: dose: 12.5 mg/kg/injection, schedule: Q04DX003 (ip), vehicle: saline.
Where [23] appears, read: dose: 25.0 mg/kg/injection, schedule: Q04DX003 (ip), vehicle: saline.

In the case of `Cc1ccc2cccc(OC(=O)Nc3cccc(C(F)(F)F)c3)c2n1`, the T/C by setting is: under setting [1], 101 % of control; under setting [2], 107 % of control; under setting [3], 105 % of control.

Turning to `CCOC(=O)/C(C#N)=N/Nc1ccc(S(=O)(=O)NC(C)=O)cc1`, the T/C under setting [4] is 96 % of control, the T/C under setting [5] was 92 % of control and the T/C under setting [6] was 96 % of control.

Turning to `CCCCc1c(O)nc2nc(-c3ccccc3)c(-c3ccccc3)nn2c1=O`, the T/C was 107 % of control under setting [7], 103 % of control under setting [8] and 94 % of control under setting [9].

Consider `CC(=O)Oc1cccc2c1C(=O)C1CC=CC(OC(C)=O)C1C2=O` (stereo not given), for which the T/C by setting is: under setting [1], 100 % of control; under setting [2], 100 % of control; under setting [3], 100 % of control.

With `NC1=NC(=S)C2N=C(N=Nc3ccc(C(=O)NC(CCC(=O)O)C(=O)O)cc3)N=C2N1` (stereo not given), the T/C is, setting by setting: (dose: 0.19 mg/kg/injection, schedule: Q01DX009 (ip), vehicle: Klucel (hydroxypropylcellulose) (HPC)) 108 % of control and 120 % of control; (dose: 3.0 mg/kg/injection, schedule: Q01DX009 (ip), vehicle: Klucel (hydroxypropylcellulose) (HPC)) 156 % of control.

As for `Cc1cccc(C2=NC(=C3CCCCC3)C(=O)O2)c1`, the T/C reads like this: under setting [10], 101 % of control; under setting [11], 100 % of control; under setting [12], 100 % of control.

Consider `O=C(Cc1nc2ccccc2[nH]1)NNC(=S)Nc1ccc(Cl)cc1`, for which the T/C is 88 % of control under setting [1] and 86 % of control under setting [2].

On to `CN(C)CCN1C(=O)C2C3CCC(C)(O3)C2C1=O` (stereo not given), for which the T/C is, setting by setting: under setting [13], 99 % of control; under setting [14], 104 % of control; under setting [15], 103 % of control.

Turning to `CCOC(=O)C(Cc1ccc(O)cc1)NCc1ccc(N(CCCl)CCCl)cc1` (stereo not given), the T/C is, setting by setting: (dose: 12.5 mg/kg/injection, schedule: Q01DX009 (ip), vehicle: saline with Tween-80) 109 % of control; under setting [16], 113 % of control; under setting [17], 160 % of control.

With `O=C(/C=C/c1cccs1)c1ccc(Nc2ccnc3cc(Cl)ccc23)cc1`, the T/C by setting is: (dose: 100.0 mg/kg/injection, schedule: Q01DX001 (ip), vehicle: saline with Tween-80) 94 % of control; (dose: 200.0 mg/kg/injection, schedule: Q01DX001 (ip), vehicle: saline with Tween-80) 98 % of control; (dose: 400.0 mg/kg/injection, schedule: Q01DX001 (ip), vehicle: saline with Tween-80) 94 % of control.

`O=c1oc2ccccc2cc1-c1ccc(Br)c2ccccc12`: the T/C reads like this: under setting [18], 93 % of control; under setting [19], 100 % of control; under setting [20], 95 % of control.

As for `Cc1ccc(C=Nc2ccc(Cl)c(Cl)c2)cc1`, the T/C under setting [10] is 100 % of control, the T/C under setting [11] was 108 % of control and the T/C under setting [12] was 89 % of control.

`CCCCCCN(CCCCCC)CC(O)c1cc(-c2ccccc2)nc2ccccc12` (stereo not given): the T/C (dose: 50.0 mg/kg/injection, schedule: Q01DX005 (ip), vehicle: saline with Tween-80) was 100 % of control; the T/C (dose: 100.0 mg/kg/injection, schedule: Q01DX005 (ip), vehicle: saline with Tween-80) was 103 % of control; the T/C (dose: 200.0 mg/kg/injection, schedule: Q01DX005 (ip), vehicle: saline with Tween-80) was 105 % of control.

As to `CB1NN=C(C)c2sccc21`, the T/C by setting is: under setting [16], 102 % of control; (dose: 50.0 mg/kg/injection, schedule: Q01DX009 (ip), vehicle: saline with Tween-80) 103 % of control; under setting [17], 86 % of control.

Turning to `O=S(=O)(Nc1cc2c3ccccc3ccc2c2ccccc12)c1ccccc1`, the T/C runs as follows: under setting [18], 96 % of control; under setting [19], 105 % of control; under setting [20], 100 % of control.

For `CCCCC1CCC(=O)NC1=O` (stereo not given), the T/C under setting [10] was 107 % of control, the T/C under setting [11] is 103 % of control and the T/C under setting [12] is 107 % of control.

For `CC1=N/C(=C\C=C\c2ccccc2)C(=O)O1`, the T/C was 104 % of control under setting [13], 101 % of control under setting [14] and 103 % of control under setting [15].

Consider `CCCCc1ccc2nccc(N/N=C/c3ccc(OC)c4ccccc34)c2c1`, for which the T/C under setting [7] was 100 % of control; the T/C under setting [8] is 100 % of control; the T/C under setting [9] was 93 % of control and 94 % of control; the T/C under setting [4] was 87 % of control.

Consider `OCC1OC(n2cnc3cncnc32)C(O)C1O` (stereo not given), for which the T/C by setting is: (dose: 6.25 mg/kg/injection, schedule: Q01DX001 (ip), vehicle: saline) 111 % of control; under setting [21], 99 % of control; (dose: 12.5 mg/kg/injection, schedule: Q01DX001 (ip), vehicle: saline) 111 % of control; under setting [22], 100 % of control; (dose: 25.0 mg/kg/injection, schedule: Q01DX001 (ip), vehicle: saline) 114 % of control; under setting [23], 99 % of control. In addition, the T/C was 96 % of control and 97 % of control (dose: 50.0 mg/kg/injection, schedule: Q04DX003 (ip), vehicle: saline); 100 % of control (dose: 100.0 mg/kg/injection, schedule: Q04DX003 (ip), vehicle: saline); 104 % of control (dose: 200.0 mg/kg/injection, schedule: Q04DX003 (ip), vehicle: saline); 104 % of control (dose: 400.0 mg/kg/injection, schedule: Q04DX003 (ip), vehicle: saline).

In the case of `CC(=O)OCCOCNC(=S)NN1CCOCC1`, the T/C is 100 % of control under setting [10], 95 % of control under setting [11] and 100 % of control under setting [12].

With `Cc1cccc(Nc2c3c(nc4ccccc24)CCCCC3)c1`, the T/C is, setting by setting: under setting [10], 98 % of control; under setting [11], 90 % of control; under setting [12], 91 % of control.

For `C=C1CC2(CC(C(C)C)CCC2C)OC1=O` (stereo not given), the T/C (dose: 100.0 mg/kg/injection, schedule: Q01DX001 (ip), vehicle: saline) was 105 % of control; the T/C (dose: 200.0 mg/kg/injection, schedule: Q01DX001 (ip), vehicle: saline) was 100 % of control; the T/C (dose: 400.0 mg/kg/injection, schedule: Q01DX001 (ip), vehicle: saline) was 105 % of control.

For `CC1=CC2C3C(=O)NC(=O)C3C1C1C3C(=O)NC(=O)C3C21` (stereo not given), the T/C by setting is: under setting [10], 98 % of control; under setting [11], 104 % of control; under setting [12], 95 % of control.

As to `CC(NC(=O)OCC1c2ccccc2-c2ccccc21)C(=O)O` (stereo not given), the T/C under setting [4] was 103 % of control, the T/C under setting [5] was 98 % of control and the T/C under setting [6] is 96 % of control.

As to `NC(=O)C1CCCN(C2OC(COP(=O)(O)OP(=O)(O)OCC3OC(n4nnc5c(=O)[nH]c(N)nc54)C(O)C3O)C(O)C2O)C1` (stereo not given), the T/C is 115 % of control under setting [13], 98 % of control under setting [14] and 87 % of control under setting [15].

As to `O=C(O)c1c[nH]c2cc(OCc3ccccc3)ccc2c1=O`, the T/C is, setting by setting: (dose: 50.0 mg/kg/injection, schedule: Q01DX009 (ip), vehicle: saline) 99 % of control; (dose: 100.0 mg/kg/injection, schedule: Q01DX009 (ip), vehicle: saline) 98 % of control; (dose: 200.0 mg/kg/injection, schedule: Q01DX009 (ip), vehicle: saline) 103 % of control.

For the molecule `O=C1c2ccc(-c3ccccc3)cc2C(=O)c2cc3c(cc21)OCO3`, the T/C by setting is: (dose: 7.5 mg/kg/injection, schedule: Q01DX005 (ip), vehicle: saline with Tween-80) 110 % of control; (dose: 15.0 mg/kg/injection, schedule: Q01DX005 (ip), vehicle: saline with Tween-80) 100 % of control; (dose: 30.0 mg/kg/injection, schedule: Q01DX005 (ip), vehicle: saline with Tween-80) 92 % of control.

Take `N=C(N)c1ccc2cc(C(=N)N)[nH]c2c1`: the T/C reads like this: under setting [21], 100 % of control; under setting [22], 100 % of control; under setting [23], 107 % of control.
